According to patent US12310950B2, “Formulations of pyrrolopyridine-aniline compounds” (NFLECTION THERAPEUTICS, INC., priority 2021, dated 2025):
“Also recorded” adds a separate entry of the source.

Tests used:
[1] = systemic exposure; cited from earlier work
[2] = test system: p-ERK; test: p-ERK suppression in rat skin by oral administration; type: in vivo
Experimental: p-ERK suppression in rat skin was evaluated by oral administration of Compound 1.003.

[3] = test system: cSCC; test: UV-driven mouse model of cSCC, chemoprevention study: number of tumors; type: in vivo, Hairless SKH-1E mice
Experimental: 136, no. 9, 2016, pp. 1920-1924 by Adelmann, C. H., et al., the entirety of which is incorporated herein by reference for all purposes. UV radiation was administered using a solar simulator (Oriel) metered at 12.5 kJ/m^2 UVB weekly, 3.4 SED for three months on Hairless SKH-1E mice.
Samples: The gel formulation (NA-1a) including Compound 1.003 in an amount of 0.1%, 0.5%, 1.0%, and 2.3% by weight of the formulation was used in the study.
(§1) A UV-driven mouse model was used to test if a topical formulation including Compound 1.003 could be used to reduce tumor burden in vivo. […] Once a mouse developed one tumor that measured 3 mm in diameter, they were randomly assigned to receive Vehicle, 0.1% Compound 1.003, 0.5% Compound 1.003, 1.0% Compound 1.003, or 2.3% Compound 1.003. Once enrolled, mice were treated with 200 uL of vehicle or the gel formulation of Compound 1.003. Drug was evenly applied to the back skin of the mouse and allowed to dry. Mice were treated for 30 days (5 d/week). […] Skin biopsies were obtained 4 hours after drug treatment at end of study.

[4] = in vivo; settings: rat, po, 300 mg/kg/day
[5] = test system: cSCC; test: UV-driven mouse model of cSCC, split-mouse study: total tumor burden; type: in vivo, Hairless SKH-1E mice; settings: split-control, 1.0% Compound 1.003 on one side, vehicle on the other, 30 days, n=5
Experimental: To internally control for potential systemic exposure, 5 mice were treated in split-control fashion with one side getting vehicle only and the other side of the same mouse receiving topical 1.0% Compound 1.003. Total tumor burden (summed volume) is quantified in untreated vs. treated sides at the beginning (black) as compared to the end of treatment 30 days later (n=5).
To definitively address the possibility of systemic exposure and non-local effects of topically applied Compound 1.003, 5 mice was treated in split-control fashion with one side with vehicle only and the other side with 1.0% Compound 1.003.

[6] = test system: phosphorylated-ERK1/2 (pERK); test: Human cSCC explant: immunohistochemistry for p-ERK; type: cell-based; settings: 0.1% Compound 1.003 in NA-1a gel formulation on epidermal surface for 4 hours, vs vehicle
[7] = test system: p-ERK1/2; test: UV-driven mouse model of cSCC: nano-immunoassay for p-ERK1/2 and total ERK1/2 in skin biopsies; type: in vivo, Hairless SKH-1E mice
Experimental: as §1

[8] = UV-driven mouse model of cSCC: tolerability (skin, body weight); type: in vivo, Hairless SKH-1E mice; settings: topical 0.1%-2.3%, 30 days
Experimental: as §1

[9] = test system: p-ERK; test: Minipig non-GLP 28-day dermal tolerability study: p-ERK suppression in skin; type: in vivo; settings: Compound 1.003 in gel formulation (NA-1a), 0.01% and 0.1%, 28 days
Experimental: Non-GLP 28-Day Dermal Tolerability Study: 4 doses of A-D formulations applied to each of 4 pigs (2 females, 2 males), where A: vehicle (NA-1a without Compound 1.003) at 30 uL/cm^2; B: NA-1a-0.01% at 10 uL/cm^2; C: NA-1a-0.1% at 30 uL/cm^2; and D: NA-1a-0.1% at 10 uL/cm^2. Minipigs were treated […] for 28 days. Biopsy obtained 4 hours after last dose on Day 28.

[10] = test system: p-ERK; test: Ex vivo cutaneous neurofibroma explants (Example 20): p-ERK by immunohistochemistry; type: cell-based, human; settings: 3 μl of gel formulation on explant; 0.1% or 0.5% by weight
Experimental: The study was conducted using a protocol similar to Example 16 with some modifications as described below.
Skin samples divided to smaller 3-4 mm pieces and placed dermal side down onto membranes. The edges of the samples were sealed with semisoft 3% agarose prepared in DMEMF-12 medium, and the apical surface was kept in contact with air to use formulations. The basal surface was in contact with the growth medium DMEMF-12 containing 10% human serum, Amphotericin B, Penicillin-Streptomycin and 1XB27. This set up enables testing of transdermal drug delivery while the tissues remain viable in the medium for the duration of the test. 3 μl of the test formulation was used.
Immunohistochemistry: Immunohistochemistry for p-ERK was performed using standard operating procedures and fully automated workflow.
3 μl of the test formulation was used.

[11] = test system: p-ERK; test: Ex vivo human cutaneous neurofibroma explants (Example 16): p-ERK by Western Blot; type: cell-based; settings: Compound 1.003 0.5% and 1.5%, topical on explant, 4 hours
Experimental: Biopsies of cutaneous neurofibroma were taken from patients undergoing excision of neurofibromas for clinical purposes. The ex vivo human explant model was established by incubating sections of biopsies of human cutaneous neurofibroma. Cutaneous Neurofibroma samples were removed from patients, transferred immediately to the lab in 15 ml […] tubes containing 5 ml DMEM/F-12 medium (Thermo Fisher, Cat #11320033) supplemented with 1XB27 supplement (Gibco™ B-27™ Supplement (50×) serum free (Cat #17504044), 2.5 μg/ml of Amphotericin B (Thermo Fisher, Cat #15290018), and 50 units/ml of Penicillin-50 μg/ml of Streptomycin (Thermo Fisher, Cat #15070063), and 10% human serum (Gemini 100-110). Skin samples divided to smaller 3-4 mm pieces and placed dermal side down onto membranes (Transwell Permeable Supports, 12 well plate, Corning 12 mm Transwell® with 3.0 μm Pore Polycarbonate Membrane Insert, Sterile Corning #3402). The edges of the samples were sealed with semisoft 3% agarose (Sigma, CAS 9012-36-6) prepared in DMEMF-12 medium, and the apical surface was kept in contact with air to use formulations. […]
Western Blot analysis: Frozen skin samples were thawed on ice and weighed. […] The lysate protein concentration was determined by the BCA protein assay kit using bovine serum albumin (BSA) as standards. […]

[12] = test system: ICI; test: CellTiter-Glo Luminescent Cell Viability Assay, SCC cells ICI; type: cell-based, human; settings: 72 hours, 0.01-30 μM, compared to NHEK
[13] = test system: COLO 16; test: CellTiter-Glo Luminescent Cell Viability Assay, SCC cells COLO 16; type: cell-based, human; settings: 72 hours, 0.01-30 μM, compared to NHEK

SMILES: O=C(NOC[C@H](O)CO)c1ccc(F)c(F)c1Nc1ccc(I)cc1F [PD0325901]
- side effects in clinical trials [1]: neurological side effects associated with ataxia, confusion, and syncope

SMILES: Cn1c(Nc2ccc(I)cc2F)c(C(=O)NOCCO)c2cccnc21 [Compound 1.003]
- change of p-ERK after oral administration (FIG. 2) ([2]; rat skin, oral, various doses): no change of p-ERK
- suppression of p-ERK in the skin ([2]; rat, 21-days of oral administration at 300 mg/kg/day): not observed
- number of tumors at the end of treatment, 0.1% ([3]; 0.1% in gel (NA-1a), 30 days, n=10 mice, vehicle 60 tumors): 31 tumors
- number of tumors at the end of treatment, 0.5% ([3]; 0.5% in gel (NA-1a), 30 days, n=10 mice, vehicle 60 tumors): 23 tumors
- suppression of new tumors at 1.0% dose and above ([3]; 1.0% dose and above, 30 days, n=10 per group): near complete suppression of new tumors
- number of tumors at the end of treatment, 1.0% ([3]; 1.0% in gel (NA-1a), 30 days, n=10 mice, vehicle 60 tumors): 13 tumors
- number of tumors at the end of treatment, 2.3% ([3]; 2.3% in gel (NA-1a), 200 uL, 30 days (5 d/week), n=10 mice, vehicle 60 tumors): 16 tumors
- total tumors / new tumor formation (FIG. 5) ([3]; gel formulation (NA-1a), 0.1%-2.3%, 30 days): dramatically suppresses new tumor formation; also recorded: suppression of total tumors
- decrease in the total number of tumors present at the end of treatment ([3]; highest doses of Compound 1.003, vs vehicle): approximately 4 fold
- Cmax [4]: ~1360 ng/mL
- total tumor volume / tumor burden on the treated side [5]: Substantial tumor regression and tumor suppression; also recorded: decreased to nearly undetectable levels
- suppression of p-ERK in human cSCC specimens (immunohistochemistry) [6]: robust suppression of p-ERK
- p-ERK levels in skin biopsies (nano-immunoassay) ([7]; 0.1% and greater vs vehicle, biopsies 4 hours after drug treatment at end of study): suppression of p-ERK levels
- suppression of p-ERK levels in mouse skin (FIG. 6B, text) ([7]; concentrations 0.6 or greater (so in the source), in %): ≥ 65
- suppression of p-ERK levels in mouse skin (FIG. 6B legend) ([7]; mouse skin treated with Compound 1.003): ≥ 65%
- skin peeling or erosions [8]: No skin peeling or erosions were observed
- weight loss (biweekly weight measurement) [8]: no weight loss
- suppression of p-ERK in minipig skin (FIG. 1) [9]: dose dependent suppression of p-ERK
- suppression of p-ERK by immunohistochemistry [10]: Dose dependent suppression
- suppression of p-ERK by Western Blot analysis [11]: complete suppression of p-ERK
- cell viability, ICI [12]: dose dependent reduction in cell viability
- cell viability, COLO 16 [13]: dose dependent reduction in cell viability

SMILES: O=C1CCCc2c1sc(Nc1ccc(I)cc1F)c2C(=O)NOCCO [Compound 2.003]
- suppression of p-ERK by immunohistochemistry [10]: Dose dependent suppression
